Assay results published in US7604949B2, “Methods and compositions that affect melanogenesis” (New York University, priority 1999, dated 2009).
Each block holds one compound with its values, some of them ahead of it.

Experiments:
[1] = biological target: p-glycoprotein ATPase (Cricetulus griseus, UniProt P21448); conditions: micromolar concentrations; cited from earlier work
[2] = system: Melan-a wild type melanocytes; assay: Melanin content after ATPase inhibitor treatment, Melan-a; assay type: cell-based, mouse; conditions: 36 hours
Method: (§1) Wild type melan-a (a/a, P/P), an immortalized melanocyte line derived from C57BL6J mice; melan-p1 melanocytes (a/a, p^cp/p^25H), an immortalized line derived from p-null mice; melan-p1 (P10), a melan-p1 line stably transfected with an expression plasmid carrying the pink-eyed dilution gene; B16, an amelanotic mouse melanoma cell line; and B16F10, a slightly pigmented mouse melanoma cell line, were used in this study.
(§2) Cells were cultured in RMPI-1640 (Sigma, St. Louis, Mo.) supplemented with 10% fetal calf serum, 5% sodium pyruvate, 5% glutamate, 5 units/ml penicillin, 5 μg/ml streptomycin, 1% non-essential amino acids and 200 nM 12-O-tetradecanoyl phorbol 13-acetate for 24 hours The medium was than replaced with RPMI containing either 0, 1, 2 or 2.5 μM bafilomycin A1 (Sigma, St. Louis, Mo.) or 0, 0.5 or 1.0 μM concanamycin A (Sigma, St. Louis, Mo.). […] The supernatant was removed and protein content determined using a protein assay kit (BioRad, Richmond, Calif.).
(§3) The melanin content in the pellet was determined following removal of the supernatant Each sample was treated with 0.5 ml ethanol:ether (1:1), vortexed and incubated at room temperature for 10 minutes. […] The sample was then transferred to a 96-well plate and the optical density was read at 490 nm. […]

[3] = system: Melan-p p-null melanocytes; assay: Melanin content after ATPase inhibitor treatment, Melan-p; assay type: cell-based, mouse; conditions: 36 hours
Method: as §1, §2, §3

[4] = system: Melan-p (P10) cells; assay: Melanin content after ATPase inhibitor treatment, Melan-p (P10); assay type: cell-based, mouse; conditions: 36 hours
Method: as §1, §2, §3

[5] = system: B16 melanoma cells; assay: Melanin content after ATPase inhibitor treatment, B16; assay type: cell-based, mouse; conditions: 36 hours
Method: as §1, §2, §3

[6] = system: B16F10 melanoma cells; assay: Melanin content after ATPase inhibitor treatment, B16F10; assay type: cell-based, mouse; conditions: 36 hours
Method: as §1, §2, §3

[7] = system: amelanotic melanoma cells that express tyrosinase; conditions: nanomolar concentrations; cited from earlier work
[8] = system: late endosomal/lysosomal cholesterol trafficking; conditions: cited from earlier work
[9] = system: melan-p1 cells; assay: Secretion of tyrosinase into medium of melan-p1 cells with protease inhibitor; assay type: cell-based, mouse
Method: (§4) (A) Melan-p1 cells incubated in low (0.03 mM) tyrosine and high (0.3 mM) tyrosine (TYR) were treated for 48 hours with increasing concentrations of the protease inhibitor E64 (μM). The tyrosinase activity in the media is expressed as a percentage of total activity in the extract and medium. (B) The concentration of melanin was determined by solubilizing the cell pellet and measuring the absorbance at 470 nm.
Tyrosinase is a type I membrane protein anchored in the membrane, and it is thus likely that proteolysis, which leads to the clipping of the tail, is required for secretion. The truncated protein would not be detected by αPEP7, which is directed against the tail, although the catalytic domains would remain functional. We, therefore, examined the effects of a series of protease inhibitors on the secretion of tyrosinase by melan-a and melan-p1 cells.
(§5) If proteolysis and secretion of tyrosinase were the precipitating factor in the misrouting of tyrosinase, then E64 should increase melanin accumulation in melan-p1 cells. […] A range of E64 concentrations was tested at low (0.03 mM) and high (0.3 mM) tyrosine.

[10] = system: melan-p1 cells; assay: Melanin content of melan-p1 cells with protease inhibitor; assay type: cell-based, mouse; conditions: melan-p1, high concentrations of tyrosine
Method: as §4, §5

[11] = biological target: T1, tyrosinase (Mus musculus, UniProt P11344); assay: Tyrosinase activity of melan-a cell extracts (radiometric tyrosine hydroxylase assay); assay type: cell-based; conditions: melan-a cells, 48 hours, vs untreated
T1 sequence (P11344 19-533): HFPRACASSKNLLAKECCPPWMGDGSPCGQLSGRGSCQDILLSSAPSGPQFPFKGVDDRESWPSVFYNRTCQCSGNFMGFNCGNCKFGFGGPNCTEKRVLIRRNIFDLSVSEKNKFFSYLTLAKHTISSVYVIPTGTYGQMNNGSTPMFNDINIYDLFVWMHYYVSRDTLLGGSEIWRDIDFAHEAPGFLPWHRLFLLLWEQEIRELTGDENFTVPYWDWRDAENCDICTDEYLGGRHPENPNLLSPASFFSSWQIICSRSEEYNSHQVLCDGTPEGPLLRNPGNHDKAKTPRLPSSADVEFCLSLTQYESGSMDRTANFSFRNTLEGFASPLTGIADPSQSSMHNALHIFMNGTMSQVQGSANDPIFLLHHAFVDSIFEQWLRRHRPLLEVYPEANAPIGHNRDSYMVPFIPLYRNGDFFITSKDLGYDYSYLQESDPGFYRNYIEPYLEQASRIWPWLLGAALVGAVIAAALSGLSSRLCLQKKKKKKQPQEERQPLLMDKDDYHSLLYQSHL

[12] = biological target: T2, P protein (Mus musculus, UniProt Q62052); assay: Tyrosinase activity of extracts of COS cells transfected with tyrosinase-encoding and P protein-encoding genes (T+P); assay type: cell-based; conditions: vs untreated
T2 construct: expressed in transfected cells; host or cells: COS cells (monkey kidney), co-transfected with the tyrosinase vector
T2 sequence (Q62052 1-833): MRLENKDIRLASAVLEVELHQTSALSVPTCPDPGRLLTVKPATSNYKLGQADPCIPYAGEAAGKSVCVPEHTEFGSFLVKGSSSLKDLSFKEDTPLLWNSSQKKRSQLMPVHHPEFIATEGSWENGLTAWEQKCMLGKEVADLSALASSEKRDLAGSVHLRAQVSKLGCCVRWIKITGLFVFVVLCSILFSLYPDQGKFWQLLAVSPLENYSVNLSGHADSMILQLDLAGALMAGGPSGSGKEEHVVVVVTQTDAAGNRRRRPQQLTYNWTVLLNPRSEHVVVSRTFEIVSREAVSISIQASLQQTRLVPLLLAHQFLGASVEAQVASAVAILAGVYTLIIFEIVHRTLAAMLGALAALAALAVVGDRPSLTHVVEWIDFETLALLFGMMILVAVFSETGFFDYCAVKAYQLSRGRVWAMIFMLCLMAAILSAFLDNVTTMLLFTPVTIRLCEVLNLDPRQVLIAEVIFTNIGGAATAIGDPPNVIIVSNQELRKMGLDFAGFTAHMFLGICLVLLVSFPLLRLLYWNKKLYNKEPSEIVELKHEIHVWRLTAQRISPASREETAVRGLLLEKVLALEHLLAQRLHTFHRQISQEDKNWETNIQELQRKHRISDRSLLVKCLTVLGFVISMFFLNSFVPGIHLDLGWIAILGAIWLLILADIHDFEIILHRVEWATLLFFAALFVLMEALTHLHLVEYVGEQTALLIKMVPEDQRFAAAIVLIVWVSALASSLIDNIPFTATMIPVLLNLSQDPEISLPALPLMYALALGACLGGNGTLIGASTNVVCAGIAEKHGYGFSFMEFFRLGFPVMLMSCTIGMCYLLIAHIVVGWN
From the text: (§6) Expression vectors were constructed to express P protein and tyrosinase genes in cultured cells. Specifically, the coding sequence for tyrosinase was removed as a HindIII-EcoRI fragment from clone TYBS (Yokohama et al., 1990, Nucl. Acids. Res. 18:7293-7298) and cloned into the HindIII/EcoRI sites of pcDNA I/lamp (Invitrogen, Calif.). Coding sequence for the P protein was removed as a BamHI-EcoRI fragment from MC2701 (Gardner et al., 1992, supra) and cloned into the BamHI/EcoRV sites of pcDNA3 and pcDNA3.1/V5/His-TOPO (Invitrogen, Calif.). COS cells were transfected with the pcDNA1-based plasmids and FuGENE™ 6 (Roche Molecular Biochemicals, Indianapolis, Ind.) as transfection agents for 48 hours. Cells were transformed with: (i) the vector alone; (ii) the vector carrying a tyrosinase-encoding gene; (iii) the vector carrying a P protein-encoding gene; or (iv) vectors carrying a tyrosinase-encoding gene and a P protein-encoding gene. Transformed cells were washed and extracted as above. Tyrosinase activity was then measured as above. Tyrosinase assays were performed on 60 micrograms of cell protein.
(§7) The tyrosinase activity of cell extracts was determined as above.

[13] = biological target: T1, tyrosinase; assay: Tyrosinase activity of extracts of COS cells transfected with tyrosinase-encoding gene alone (V+T); assay type: cell-based; design: expressed in transfected cells; host or cells: COS cells (monkey kidney); conditions: vs untreated
From the text: as §6, §7

[14] = bafilomycin A1 0, 1, 2 or 2.5 μM
[15] = concanamycin A 0, 0.5 or 1.0 μM

Sequence of p-glycoprotein ATPase (P21448 whole entry): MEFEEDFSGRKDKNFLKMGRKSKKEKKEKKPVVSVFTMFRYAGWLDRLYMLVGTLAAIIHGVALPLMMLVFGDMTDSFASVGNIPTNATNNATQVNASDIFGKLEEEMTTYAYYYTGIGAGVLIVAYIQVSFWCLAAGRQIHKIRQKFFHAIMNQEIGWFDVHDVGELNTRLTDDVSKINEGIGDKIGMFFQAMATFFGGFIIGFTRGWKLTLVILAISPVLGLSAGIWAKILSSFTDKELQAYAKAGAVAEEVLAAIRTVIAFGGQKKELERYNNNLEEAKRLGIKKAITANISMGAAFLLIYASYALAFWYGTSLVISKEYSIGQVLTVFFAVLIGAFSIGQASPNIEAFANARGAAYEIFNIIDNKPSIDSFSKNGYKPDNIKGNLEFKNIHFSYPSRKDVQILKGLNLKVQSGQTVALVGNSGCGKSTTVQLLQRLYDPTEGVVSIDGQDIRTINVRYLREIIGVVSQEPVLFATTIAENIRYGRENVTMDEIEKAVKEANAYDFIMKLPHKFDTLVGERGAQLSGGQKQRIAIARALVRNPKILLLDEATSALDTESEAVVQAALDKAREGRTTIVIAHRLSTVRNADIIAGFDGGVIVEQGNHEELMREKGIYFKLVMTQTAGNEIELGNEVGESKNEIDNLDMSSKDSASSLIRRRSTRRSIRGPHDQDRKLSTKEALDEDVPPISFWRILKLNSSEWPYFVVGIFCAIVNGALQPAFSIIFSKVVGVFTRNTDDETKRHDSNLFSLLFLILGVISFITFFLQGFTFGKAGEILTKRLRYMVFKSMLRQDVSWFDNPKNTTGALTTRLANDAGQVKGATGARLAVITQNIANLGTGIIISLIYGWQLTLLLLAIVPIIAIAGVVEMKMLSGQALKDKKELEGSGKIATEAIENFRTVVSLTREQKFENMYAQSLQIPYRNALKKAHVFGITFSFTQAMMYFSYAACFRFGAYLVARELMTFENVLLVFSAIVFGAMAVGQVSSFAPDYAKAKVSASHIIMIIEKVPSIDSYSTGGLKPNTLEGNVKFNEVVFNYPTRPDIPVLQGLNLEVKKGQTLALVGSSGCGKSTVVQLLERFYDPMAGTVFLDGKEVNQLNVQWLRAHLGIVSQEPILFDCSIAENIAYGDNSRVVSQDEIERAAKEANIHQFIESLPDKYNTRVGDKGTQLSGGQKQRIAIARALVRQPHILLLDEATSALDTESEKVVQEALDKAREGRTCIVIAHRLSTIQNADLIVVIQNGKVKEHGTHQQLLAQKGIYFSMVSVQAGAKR

SMILES: C/C=C/[C@H]1O[C@@](O)([C@@H](C)[C@H](O)[C@H](C)[C@H]2OC(=O)/C(OC)=C/C(C)=C/[C@@H](C)[C@@H](O)[C@@H](C)[C@@H](O)[C@H](C)C/C(C)=C/C=C/[C@@H]2OC)C[C@@H](O[C@H]2C[C@@H](O)[C@H](OC(N)=O)[C@@H](C)O2)[C@@H]1C [concanamycin B]
inhibition of p-glycoprotein ATPase activity [1]: inhibit p-glycoprotein ATPase activity at micromolar concentrations

SMILES: CO/C1=C\C(C)=C\[C@@H](C)[C@@H](O)[C@@H](C)C/C(C)=C/C=C/[C@H](OC)[C@@H]([C@@H](C)[C@@H](O)[C@H](C)[C@@]2(O)C[C@@H](O)[C@H](C)[C@@H](C(C)C)O2)OC1=O [bafilomycin A1]
melanin content [2, 14]: initially increases in the presence of μM concentrations of bafilomycin A1 but drops at the highest concentration tested | melanin levels [3, 14]: increased with an increase in bafilomycin A1 concentration | melanin content [4, 14]: initially increases in the presence of μM concentrations of bafilomycin A1 but drops at the highest concentration tested | melanin content ([5]; B16, bafilomycin A1 0, 1, 2 or 2.5 μM): does not respond | pigmentation ([6]; B16F10, bafilomycin A1 0, 1, 2 or 2.5 μM): demonstrates increasing pigmentation which diminishes at higher concentrations | inhibition of p-glycoprotein ATPase activity [1]: inhibit p-glycoprotein ATPase activity at micromolar concentrations | activation of melanogenesis [7]: activate melanogenesis

SMILES: CC(=O)[C@H]1CC[C@H]2[C@@H]3CCC4=CC(=O)CC[C@]4(C)[C@H]3CC[C@]12C [progesterone]
cholesterol movement from the PM to the ER, from the late endosome/lysosome to the ER and to the PM [8]: inhibit cholesterol movement

SMILES: CC(C)C[C@H](NC(=O)[C@H]1O[C@@H]1C(=O)O)C(=O)NCCCCN=C(N)N [E64]
tyrosinase activity in the media as percentage of total activity in extract and medium ([9]; melan-p1, 0.03 mM tyrosine, 12.5 μM E64, 48 hours (untreated 7.1%)): 4.0% | tyrosinase activity in the media as percentage of total activity in extract and medium ([9]; melan-p1, 0.03 mM tyrosine, 25 μM E64, 48 hours (untreated 7.1%)): 3.8% | tyrosinase activity in the media as percentage of total activity in extract and medium ([9]; melan-p1, 0.3 mM tyrosine, E64, 48 hours (untreated 6.5%)): 3.9% | intracellular melanin production [10]: reduced intracellular melanin production

SMILES: O=C(O)/C=C\C(=O)O.O=[N+]([O-])c1ccc2nc(N3CCNCC3)ccc2c1 [nitroquipazine, 6-nitro-2-(1-piperazinyl)-quinoline maleate]
tyrosinase activity of cell extracts ([11]; 30 micromolar compound): greater tyrosinase activities than untreated cells | tyrosinase activity of extracts, cells expressing both P protein and tyrosinase ([12]; 30 micromolar compound): lower tyrosinase activity | tyrosinase activity of extracts, cells expressing only tyrosinase ([13]; 30 micromolar compound): lower tyrosinase activity

SMILES: C/C=C/[C@H]1O[C@@](O)([C@@H](C)[C@H](O)[C@H](C)[C@H]2OC(=O)/C(OC)=C/C(C)=C/[C@@H](C)[C@@H](O)[C@@H](CC)[C@@H](O)[C@H](C)C/C(C)=C/C=C/[C@@H]2OC)C[C@@H](O[C@H]2C[C@@H](O)[C@H](OC(N)=O)[C@@H](C)O2)[C@@H]1C [concanamycin A]
melanin content [2, 15]: is decreased | melanin levels [3, 15]: increase with an increase in concanamycin A concentration | melanin content [4, 15]: is decreased | melanin content ([5]; B16, concanamycin A 0, 0.5 or 1.0 μM): does not respond | pigmentation ([6]; B16F10, concanamycin A 0, 0.5 or 1.0 μM): demonstrates increasing pigmentation which diminishes at higher concentrations | inhibition of p-glycoprotein ATPase activity [1]: inhibit p-glycoprotein ATPase activity at micromolar concentrations | activation of melanogenesis [7]: activate melanogenesis

SMILES: CCCCCCCCCCCCC/C=C/[C@@H](O)[C@@H](N)CO [sphingosine]
cholesterol movement from the PM to the ER, from the late endosome/lysosome to the ER and to the PM [8]: inhibit cholesterol movement

tyrosinase activity of extracts, cells expressing both P protein and tyrosinase ([12]; 10 micromolar compound): did not have an appreciable effect | tyrosinase activity of extracts, cells expressing only tyrosinase ([13]; 10 micromolar compound): did not have an appreciable effect
SMILES: CN1[C@@H]2CC[C@H]1C[C@@H](OC(c1ccccc1)c1ccccc1)C2 [benztropine]
tyrosinase activity of cell extracts ([11]; 10 micromolar compound): greater tyrosinase activities than untreated cells
